# Results from patent publication US4804749A, “20-O-Acyl-19,20-enolmacrolide antibiotic derivatives” (Toyo Jozo Co., Ltd., priority 1986, dated 1989).
# Legend:
# S. aureus, 209P = experiment: MIC against S. aureus, 209P; assay type: cell-based; conditions: Staphylococcus aureus
# Excerpt: (§1) Antibacterial activities of certain compounds (I) of this invention and corresponding 19-formylmacrolide antibiotics as well as their levels in blood and therapeutic effects for infectious diseases upon their oral administration are compared in Table 2.
# MIC (μg/ml): S. aureus, 209P
# S. pyogenes, S-23 [1] = experiment: MIC against infective microorganism S. pyogenes, S-23; assay type: cell-based; conditions: Streptococcus pyogenes, S23
# Excerpt: as §1
# [2] = Antibiotics levels in blood upon oral administration at 100 mg/kg to mice (by the paper disk method); assay type: in vivo; conditions: mouse, ND: Below detectable limit; for Cmax: read-out: Antibiotics levels in blood upon oral administration: Peak value
# Protocol: as §1
# Antibiotics levels in blood
# upon oral administration at
# 100 mg/kg to mice (by the paper
# disk method) (μg · h/ml)
# S. pyogenes, S-23 [3] = experiment: Treatment results of infectious diseases of mice by oral administration; assay type: in vivo; conditions: Streptococcus pyogenes, S23; mice infected with S. pyogenes S-23, oral administration
# Excerpt: as §1
# infectious diseases of mice
Structure (SMILES),"MIC (S. aureus, 209P)","MIC (S. pyogenes, S-23 [1])",AUC [2],Cmax [2],"ED50 (S. pyogenes, S-23 [3])"
"CCC(=O)OC=CC1CC(C)C(=O)C=CC(C)=CC(COC2OC(C)C(O)C(OC)C2OC)C(CC)OC(=O)CC(OC(=O)CC)C(C)C1OC1OC(C)CC(N(C)C)C1O (stereo not drawn) [Example 3b, 3,20-Di-O-propionyl-19,20-enol-4'-deoxydesmycosin]",0.39 µg/mL,0.2 µg/mL,4900 ng·h/mL,2710 ng/mL,59 mg/kg
"CCC(=O)OC1CC(=O)OC(CC)C(COC(=O)N(C)C)C=C(C)C=CC(=O)C(C)CC(CC=O)C(OC2OC(C)C(O)C(N(C)C)C2O)C1C (stereo not drawn) [Ia, 3O--Propionyl-23-O--dimethylcarbamoyl-OMT, reference compound]",0.2 µg/mL,0.1 µg/mL,–,–,> 400 mg/kg
"CCC(=O)OC1CC(=O)OC(CC)C(COC2OC(C)CC(OC)C2OC)C=C(C)C=CC(=O)C(C)CC(CC=O)C(OC2OC(C)C(O)C(N(C)C)C2O)C1C (stereo not drawn) [Example 2a, 3O--Propionyl-4""-deoxydesmycosin, reference compound]",0.2 µg/mL,–,1570 ng·h/mL,420 ng/mL,–
"CCC(=O)OC=CC1CC(C)C(=O)C=CC(C)=CC(COC(=O)N(C)C)C(CC)OC(=O)CC(OC(=O)CC)C(C)C1OC1OC(C)C(O)C(N(C)C)C1O (stereo not drawn) [Ib, 3,20-Di-O-propionyl-19,20-enol-23-O-dimethylcarbamoyl-OMT]",0.78 µg/mL,0.78 µg/mL,6000 ng·h/mL,3000 ng/mL,100 to 200 mg/kg
"CCC(=O)OC=CC1CC(C)C(=O)C=CC(C)=CC(COC2OC(C)CC(OC)C2OC)C(CC)OC(=O)CC(OC(=O)CC)C(C)C1OC1OC(C)C(O)C(N(C)C)C1O (stereo not drawn) [Example 2b, 3,20-Di-O-propionyl-19, 20-enol-4""-deoxydesmycosin]",0.39 µg/mL,–,2800 ng·h/mL,2630 ng/mL,–
"CCC(=O)OC1CC(=O)OC(CC)C(COC2OC(C)C(O)C(OC)C2OC)C=C(C)C=CC(=O)C(C)CC(CC=O)C(OC2OC(C)CC(N(C)C)C2O)C1C (stereo not drawn) [Example 3a, 3O--Propionyl-4'deoxydesmycosin, reference compound]",0.2 µg/mL,0.05 µg/mL,1790 ng·h/mL,430 ng/mL,> 200 mg/kg
